From patent publication US11840528B2 (Hoffmann-La Roche Inc., priority 2018, dated 2023)

What was measured:
h-GABA-A α5β3γ2 [1] = target: T1, h-GABA-A α5β3γ2 (Homo sapiens, UniProt P18507+P31644); test: Two-electrode voltage clamp electrophysiology in Xenopus laevis oocytes expressing GABAA receptors, modulation of GABA EC20 current; type: cell-based; parameters: host or cells: Xenopus laevis oocytes micro-injected with RNA transcripts of the subunits; conditions: Table 1; for Efficacy (GABA) %: % modulation of GABA EC20 = 100*(Fold increase-1); for Fold increase h-GABA-A α5β3γ2 oocyte: test compound at approx. 30 fold its Ki, GABA at EC20
In short: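 Human α5β3γ2 GABAA receptors were expressed in Xenopus oocytes by RNA injection, with γ2 RNA 5–10-fold higher, and recorded 3–5 days later by two-electrode voltage clamp at −80 mV at room temperature. The test compound, at about 30× its Ki, was co-applied during a second GABA EC20 pulse. Efficacy is the extremum of the point-by-point ratio to the first response, expressed as 100*(Fold increase−1).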

h-GABA-A α5β3γ2 [2] = target: T1, h-GABA-A α5β3γ2; test: [3H]flumazenil competition binding assay, membranes of HEK293 cells expressing GABAA receptors; conditions: displacement of [3H]-Flumazenil 0.5 nM, HEK293 cells expressing human receptors, mean of two determinations; Table 1
In short: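 Membranes from HEK293 cells transiently expressing human α5β3γ2 GABAA receptors, in Krebs-tris buffer pH 7.5, competed against [3H]flumazenil for 1 hour at 4° C to equilibrium. Bound radioactivity collected on GF/C filters and counted by liquid scintillation; Ki values are means of two determinations.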

Compound | Efficacy (GABA) % (h-GABA-A α5β3γ2 [1]) [%] | Fold increase h-GABA-A α5β3γ2 oocyte (h-GABA-A α5β3γ2 [1]) | Ki (h-GABA-A α5β3γ2 [2]) [µM]
COC1(C)CCN(c2cnn(Cc3c(-c4ccc(Cl)nc4)noc3C)c(=O)c2)CC1 [Example 262, 2-((3-(6-chloropyridin-3-yl)-5-methylisoxazol-4-yl)methyl)-5-(4-methoxy-4-methylpiperidin-1-yl)pyridazin-3(2H)-one] | 216 | 3.16 | 0.0355
Cc1ccc(-c2noc(C)c2Cn2ncc(-c3ccnc(OC4CCOC4)c3)cc2=O)cn1 (stereo not drawn) [Example 177, 2-((5-methyl-3-(6-methylpyridin-3-yl)isoxazol-4-yl)methyl)-5-(2-((tetrahydrofuran-3-yl)oxy)pyridin-4-yl)pyridazin-3(2H)-one] | 121 | 2.21 | 0.0184
Cc1onc(-c2ccc(C(F)(F)F)nc2)c1Cn1ncc(N2CCN(C3CC3)CC2)cc1=O [Example 66, 5-(4-cyclopropylpiperazin-1-yl)-2-[[5-methyl-3-[6-(trifluoromethyl)-3-pyridyl]isoxazol-4-yl]methyl]pyridazin-3-one] | 121 | 2.21 | 0.0264
Cc1ccc(-c2noc(C)c2Cn2ncc(-c3cccc(C#N)n3)cc2=O)cn1 [Example 211, 6-(1-((5-methyl-3-(6-methyl-3-pyridyl)isoxazol-4-yl)methyl)-6-oxo-pyridazin-4-yl)pyridine-2-carbonitrile] | 324 | 4.24 | 0.0409
Cc1ccc(-c2noc(C)c2Cn2ncc(N3CC4(CCCCO4)C3)cc2=O)cn1 [Example 216, 2-((5-methyl-3-(6-methylpyridin-3-yl)isoxazol-4-yl)methyl)-5-(5-oxa-2-azaspiro[3.5]nonan-2-yl)pyridazin-3(2H)-one] | 103 | 2.03 | 0.0158
CCOC1CN(c2cnn(Cc3c(-c4ccc(C)nc4)noc3C)c(=O)c2Cl)C1 [Example 268, 4-chloro-5-(3-ethoxyazetidin-1-yl)-2-((5-methyl-3-(6-methylpyridin-3-yl)isoxazol-4-yl)methyl)pyridazin-3(2H)-one] | 184 | 2.84 | 0.0166
COc1ccccc1C1CCN(c2cnn(Cc3c(-c4ccc(C)nc4)noc3C)c(=O)c2)CC1 [Example 61, 5-[4-(2-methoxyphenyl)-1-piperidyl]-2-[[5-methyl-3-(6-methyl-3-pyridyl)isoxazol-4-yl]methyl]pyridazin-3-one] | 76 | 1.76 | 0.0154
Cc1ccc(-c2noc(C)c2Cn2ncc(-c3ccc4ncc(C)n4c3)cc2=O)cn1 [Example 218, 2-((5-methyl-3-(6-methylpyridin-3-yl)isoxazol-4-yl)methyl)-5-(3-methylimidazo[1,2-a]pyridin-6-yl)pyridazin-3(2H)-one] | 84 | 1.84 | 0.0198
Cc1onc(-c2ccc(F)cc2)c1Cn1ncc(N2CCC(n3c(C)nnc3C)CC2)cc1=O [Example 55, 5-(4-(3,5-Dimethyl-4H-1,2,4-triazol-4-yl)piperidin-1-yl)-2-((3-(4-fluorophenyl)-5-methylisoxazol-4-yl)methyl)pyridazin-3(2H)-one] | 85 | 1.85 | 0.0434
CCOc1ccc(-c2cnn(Cc3c(-c4ccc(C)nc4)noc3C)c(=O)c2)cn1 [Example 151, 5-(6-ethoxypyridin-3-yl)-2-((5-methyl-3-(6-methylpyridin-3-yl)isoxazol-4-yl)methyl)pyridazin-3(2H)-one] | 119 | 2.19 | 0.0272
Cc1ccc(-c2noc(C)c2Cn2ncc(N3CC4(CCCCC4)C3)cc2=O)cn1 [Example 195] | 118 | 2.18 | 0.0172
Cc1ccc(-c2noc(C)c2Cn2ncc(-c3cnn(C(F)F)c3)cc2=O)cn1 [Example 154, 5-(1-(difluoromethyl)-1H-pyrazol-4-yl)-2-((5-methyl-3-(6-methylpyridin-3-yl)isoxazol-4-yl)methyl)pyridazin-3(2H)-one] | 244 | 3.44 | 0.0237
Cc1ccc(-c2noc(C)c2Cn2ncc(-c3ccc(OC(F)(F)F)cc3)cc2=O)cn1 [Example 114, 2-((5-methyl-3-(6-methyl-3-pyridyl)isoxazol-4-yl)methyl)-5-(4-(trifluoromethoxy)phenyl)pyridazin-3-one] | 81 | 1.81 | 0.024

Now those with a lower Ki (h-GABA-A α5β3γ2 [2]), led by results:

Efficacy (GABA) % (h-GABA-A α5β3γ2 [1]) [%] | Fold increase h-GABA-A α5β3γ2 oocyte (h-GABA-A α5β3γ2 [1]) | Ki (h-GABA-A α5β3γ2 [2]) [µM] | Compound
181 | 2.81 | 0.0095 | Cc1ccc(-c2noc(C)c2Cn2ncc(N3CCN4C(=O)OCC4C3)cc2=O)cn1 (stereo not drawn) [Example 44, 7-(1-((5-methyl-3-(6-methylpyridin-3-yl)isoxazol-4-yl)methyl)-6-oxo-1,6-dihydropyridazin-4-yl)tetrahydro-1H-oxazolo[3,4-a]pyrazin-3(5H)-one]
135 | 2.35 | 0.0007 | Cc1onc(-c2ncc(Cl)cc2F)c1Cn1ncc(N2C[C@@H](C)O[C@@H](C)C2)cc1=O [Example 52, 2-[[3-(5-chloro-3-fluoro-2-pyridyl)-5-methyl-isoxazol-4-yl]methyl]-5-(cis-2,6-dimethylmorpholin-4-yl)pyridazin-3-one]
187 | 2.87 | 0.0028 | Cc1ccc(-c2noc(C)c2Cn2ncc(N3CCN[C@H](C)C3)cc2=O)cn1 [Example 50, 2-[[5-methyl-3-(6-methyl-3-pyridyl)isoxazol-4-yl]methyl]-5-[(3R)-3-methylpiperazin-1-yl]pyridazin-3-one]
147 | 2.47 | 0.0058 | CO[C@H]1COC2(C1)CN(c1cnn(Cc3c(-c4ccc(C(F)(F)F)nc4)noc3C)c(=O)c1)C2 [Example 237, 5-[(7R)-7-methoxy-5-oxa-2-azaspiro[3.4]octan-2-yl]-2-[[5-methyl-3-[6-(trifluoromethyl)-3-pyridyl]isoxazol-4-yl]methyl]pyridazin-3-one]
90 | 1.9 | 0.0092 | Cc1onc(-c2ccc(C(F)(F)F)nn2)c1Cn1ncc(N2CC3(CCCCO3)C2)cc1=O [Example 335, 2-((5-methyl-3-(6-(trifluoromethyl)pyridazin-3-yl)isoxazol-4-yl)methyl)-5-(5-oxa-2-azaspiro[3.5]nonan-2-yl)pyridazin-3(2H)-one]
81 | 1.81 | 0.01 | COC1CN(c2cnn(Cc3c(-c4ncc(C(F)(F)F)cn4)noc3C)c(=O)c2)C1 [Example 229, 5-(3-methoxyazetidin-1-yl)-2-((5-methyl-3-(5-(trifluoromethyl)pyrimidin-2-yl)isoxazol-4-yl)methyl)pyridazin-3(2H)-one]
253 | 3.53 | 0.001 | Cc1ccc(-c2noc(C)c2Cn2ncc(N3C[C@@H](C)O[C@@H](C)C3)cc2=O)cn1 [Example 7, 5-(cis-2,6-dimethylmorpholin-4-yl)-2-((5-methyl-3-(6-methylpyridin-3-yl)-1,2-oxazol-4-yl)methyl)pyridazin-3-one]
